Measurements published in publication PMC6522510 (Nature Communications, 2019).
Where two headings read alike, the source gives them in different places.

Legend:
Test in all cases: Secondary dose-response HTS, Cell Titer Glo; call rule not given here
Assay type in all cases: cell-based, human
[1] = test system: M07e
[2] = test system: U937
[3] = test system: MOLM-13; settings: MOLM-13
[4] = test system: CMK; settings: CMK; for EC50: Homo sapiens
[5] = test system: CHRF288-11
[6] = test system: CMS
[7] = test system: MV4-11; settings: MV4-11
[8] = test system: ML2; settings: ML-2
[9] = Homo sapiens, M-07e, secondary high-throughput screen, M07e, read-out: average effective concentration, M07e
[10] = Homo sapiens, U-937, secondary high-throughput screen, U937, read-out: average effective concentration, U937
[11] = Homo sapiens, secondary high-throughput screen, read-out: average effective concentration, MOLM-13
[12] = secondary high-throughput screen, read-out: average effective concentration, CMK
[13] = Homo sapiens, HTS, secondary high-throughput screen, CHRF288-11, read-out: average effective concentration, CHRF288-11
[14] = Homo sapiens, HTS, secondary high-throughput screen, CMS, read-out: average effective concentration, CMS
[15] = Homo sapiens, secondary high-throughput screen, read-out: average effective concentration, MV4-11
[16] = Homo sapiens, secondary high-throughput screen, read-out: average effective concentration, ML-2
[17] = Homo sapiens, M-07e, secondary HTS, 72 h, average of triplicate, read-out: EC50 M07e
[18] = Homo sapiens, U-937, secondary HTS, 72 h, average of triplicate, read-out: EC50 U937
[19] = Homo sapiens, secondary HTS, 72 h, average of triplicate, read-out: EC50 MOLM-13
[20] = secondary HTS, 72 h, average of triplicate, read-out: EC50 CMK
[21] = Homo sapiens, secondary HTS, 72 h, average of triplicate, read-out: EC50 CHRF288-11
[22] = Homo sapiens, secondary HTS, 72 h, average of triplicate, read-out: EC50 CMS
[23] = Homo sapiens, secondary HTS, 72 h, average of triplicate, read-out: EC50 MV4-11
[24] = Homo sapiens, secondary HTS, 72 h, average of triplicate, read-out: EC50 ML2
[25] = secondary high-throughput screen, M07e
[26] = secondary high-throughput screen, U937
[27] = secondary high-throughput screen
[28] = secondary high-throughput screen, CHRF288-11
[29] = secondary high-throughput screen, CMS

Row | Structure (SMILES) | EC50 [1, 9] [nM] | EC50 [2, 10] [nM] | EC50 [4, 12] [nM] | EC50 [5, 13] [nM] | EC50 [6, 14] [nM] | EC50 [7, 15] [nM] | EC50 [8, 16] [nM] | EC50 [1, 17] [nM] | EC50 [2, 18] [nM] | EC50 [3, 19] [nM] | EC50 [4, 20] [nM] | EC50 [5, 21] [nM] | average effective concentration, M07e [1, 25] | average effective concentration, U937 [2, 26] | average effective concentration, MOLM-13 [3, 27] | average effective concentration, CMK [4, 27] | average effective concentration, CHRF288-11 [5, 28] | average effective concentration, CMS [6, 29] | average effective concentration, MV4-11 [7, 27] | average effective concentration, ML-2 [8, 27] | other results
1 | CN(C)c1ccc2nc3ccc(=[N+](C)C)cc-3sc2c1 [METHYLENE BLUE] | > 10000 | 10000 | 3400 | 6200 | > 10000 | 1300 | 5900 | – | – | – | – | – | – | – | – | – | – | – | – | – | EC50 [3, 11]: 2000 nM
2 | CO[C@@]12[C@H](COC(N)=O)C3=C(C(=O)C(C)=C(N)C3=O)N1C[C@@H]1N[C@@H]12 [MITOMYCIN C] | 9400 | 4400 | 770 | 750 | 10000 | 4100 | 2400 | – | – | – | – | – | – | – | – | – | – | – | – | – | EC50 [3, 11]: 2800 nM
3 | O=C1c2c(O)ccc(O)c2C(=O)c2c(NCCNCCO)ccc(NCCNCCO)c21 [Mitoxantrone, reference compound] | – | – | – | – | – | – | – | 30 | 30 | 10 | 40 | 20 | – | – | – | – | – | – | – | – | EC50 [6, 22]: 80 nM; EC50 [7, 23]: 1 nM; EC50 [8, 24]: 240 nM
4 | Cc1ccc(S(=O)(=O)n2c(N)nc3ccccc32)cc1 [NODINITIB-1] | – | – | – | – | – | – | – | – | – | – | – | – | Inactive | Inactive | Inactive | Inactive | Inactive | Inactive | Inactive | Inactive | –
5 | O=c1cc(N2CCOCC2)oc2c1ccc1ccccc12 [NU 7026] | – | – | – | – | – | – | – | – | – | – | – | – | Inactive | Inactive | Inactive | Inactive | Inactive | Inactive | Inactive | Inactive | –
6 | CC(C)(CCc1ccccc1)C(=O)Nc1ccc(C(=O)NO)cc1 [OSU-HDAC-44] | – | – | – | – | – | – | – | – | – | – | – | – | – | – | – | Inactive | – | – | – | – | EC50 ([1]; secondary high-throughput screen, M07e, read-out: average effective concentration, M07e): 350 nM; EC50 ([2]; secondary high-throughput screen, U937, read-out: average effective concentration, U937): 490 nM; EC50 ([3]; secondary high-throughput screen, read-out: average effective concentration, MOLM-13): 1300 nM; EC50 ([5]; secondary high-throughput screen, CHRF288-11, read-out: average effective concentration, CHRF288-11): 1500 nM; EC50 ([6]; secondary high-throughput screen, CMS, read-out: average effective concentration, CMS): 480 nM; EC50 ([7]; secondary high-throughput screen, read-out: average effective concentration, MV4-11): 290 nM; EC50 ([8]; secondary high-throughput screen, read-out: average effective concentration, ML-2): 1400 nM
7 | COC[C@H](NC(=O)c1cnc(C)s1)C(=O)N[C@@H](COC)C(=O)N[C@@H](Cc1ccccc1)C(=O)[C@@]1(C)CO1 [Oprozomib, reference compound] | – | 11 | 7.6 | 25 | – | – | 5 | 10 | 10 | 10 | 10 | 30 | – | – | – | – | – | – | – | – | EC50 [6, 22]: 1 nM; EC50 [7, 23]: 10 nM; EC50 [8, 24]: 10 nM
8 | C[C@@H]1O[C@@H](O[C@H]2C[C@@H](O)[C@]3(CO)[C@H]4[C@H](O)C[C@]5(C)[C@@H](C6=CC(=O)OC6)CC[C@]5(O)[C@@H]4CC[C@]3(O)C2)[C@H](O)[C@H](O)[C@H]1O [Ouabain, reference compound] | 64 | 41 | – | 43 | 46 | 38 | 31 | 60 | 40 | 30 | 180 | 40 | – | – | – | – | – | – | – | – | EC50 [6, 22]: 50 nM; EC50 [7, 23]: 40 nM; EC50 [8, 24]: 30 nM
9 | COc1cccc(-c2cc(=O)c3ccccc3o2)c1N [PD 98059] | – | – | – | – | – | – | – | – | – | – | – | – | Inactive | Inactive | Inactive | Inactive | Inactive | Inactive | Inactive | Inactive | –
10 | Cc1cc(I)ccc1Nc1c(C(=O)NOCC2CC2)cc(F)c(F)c1F [PD 198306] | – | – | – | – | – | – | – | – | – | – | – | – | Inactive | Inactive | Inactive | Inactive | Inactive | Inactive | Inactive | Inactive | –
